Numbers after ± are expanded uncertainties.
Settings: Liquid, Buoyancy - hydrostatic balance with magnetic suspension - one sinker

CCCCCCCCCCC [undecane]
Settings	mass density [kg/m3]
313.17 K, 19009 kPa	741.21 ± 0.33
313.18 K, 9997 kPa	734.69 ± 0.33
313.19 K, 12016 kPa	736.18 ± 0.33
313.19 K, 18013 kPa	740.5 ± 0.33
313.22 K, 14009 kPa	737.62 ± 0.33
313.23 K, 16006 kPa	739.05 ± 0.33
313.24 K, 8029 kPa	733.14 ± 0.33
323.18 K, 19002 kPa	734.54 ± 0.33
323.19 K, 16026 kPa	732.35 ± 0.33
323.19 K, 17995 kPa	733.8 ± 0.33
323.22 K, 10009 kPa	727.67 ± 0.33
323.23 K, 12003 kPa	729.24 ± 0.33
323.23 K, 14022 kPa	730.8 ± 0.33
323.24 K, 7997 kPa	726.03 ± 0.33
333.12 K, 16003 kPa	725.32 ± 0.33
333.12 K, 17990 kPa	726.87 ± 0.33
333.13 K, 12007 kPa	722.07 ± 0.33
333.14 K, 8001 kPa	718.68 ± 0.33
333.14 K, 19027 kPa	727.66 ± 0.33
333.15 K, 14012 kPa	723.7 ± 0.33
333.16 K, 10001 kPa	720.38 ± 0.33
343.25 K, 13005 kPa	716 ± 0.33
343.25 K, 16996 kPa	719.36 ± 0.33
343.26 K, 11021 kPa	714.27 ± 0.33
343.26 K, 14019 kPa	716.86 ± 0.33
343.27 K, 15997 kPa	718.51 ± 0.33
343.27 K, 18006 kPa	720.27 ± 0.33
343.28 K, 11999 kPa	715.12 ± 0.33
343.28 K, 19019 kPa	720.98 ± 0.33
343.29 K, 7989 kPa	711.51 ± 0.33
343.29 K, 9998 kPa	713.33 ± 0.33
343.3 K, 14998 kPa	717.66 ± 0.33
353.16 K, 12003 kPa	708.19 ± 0.33
353.31 K, 11002 kPa	707.25 ± 0.33
353.31 K, 17012 kPa	712.63 ± 0.33
353.32 K, 13007 kPa	709.08 ± 0.33
353.32 K, 14999 kPa	710.86 ± 0.33
353.32 K, 19024 kPa	714.35 ± 0.33
353.33 K, 7993 kPa	704.36 ± 0.33
353.33 K, 14003 kPa	709.98 ± 0.33
353.33 K, 18010 kPa	713.48 ± 0.33
353.34 K, 16001 kPa	711.73 ± 0.33
353.35 K, 9996 kPa	706.27 ± 0.33
